These cell lines were tested with CC1CC(=O)N(C2=CN=C(N=C2N1C3CCCC3)NC4=C(C=C(C=C4)C(=O)NC5CCN(CC5)C)OC)C [NPK76-II-72-1] + Nc1nc2[nH]cc(CCc3ccc(C(=O)N[C@@H](CCC(=O)O)C(=O)O)cc3)c2c(=O)[nH]1 [Pemetrexed] (partner 0.2 µM) (assay: relative viability (nuclei count vs DMSO), 5 days (fraction); higher = more cells survive). Conditions: first compound 1 µM.
Procedure, shortened: (§1)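 A single step with final 0.05% Triton X-100, 1% formaldehyde and 1 ug/ml Hoechst fixed the cells and stained nuclei 5 days after treatment. Lung cancer cell lines in 1536-well plates had been treated by pin tool the day after seeding with one drug alone or a fixed anchor-drug dose plus five library-drug doses (not always all listed) in √10 steps, and nuclei were counted on 4× images. Relative viability is the ratio of nuclei in treated wells to nuclei in vehicle wells, taken as the median of duplicate plates.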

| Cell Line | relative viability |
| --- | --- |
| NCI-H2023 | 0.268 |
| HCC-15 | 0.235 |

The cell lines below were run with CC[C@@H]1C(=O)N(C)c2cnc(Nc3ccc(C(=O)NC4CCN(C)CC4)cc3OC)nc2N1C1CCCC1 [BI-2536] + CC(C)C[C@H](NC(=O)[C@H](Cc1ccccc1)NC(=O)c1cnccn1)B(O)O [Bortezomib] (partner 0.002 µM) in the same assay as above. Conditions: first compound 0.01 µM.
Procedure, shortened: as §1

| Cell Line | relative viability |
| --- | --- |
| NCI-H2405 | 0.829 |
| HOP-62 | 0.603 |
| LU99A | 1.04 |
| BEN | 0.61 |
| HARA | 1.19 |
| HCC-78 | 0.505 |
| NCI-H322M | 1.32 |
| LCLC-97TM1 | 0.658 |
| NCI-H2009 | 1.02 |
| A-427 | 0.955 |
| NCI-H441 | 0.333 |
| NCI-H661 | 0.959 |
| NCI-H1734 | 0.84 |
| NCI-H460 | 1.21 |
| NCI-H2347 | 0.864 |
| SK-LU-1 | 0.978 |

| Cell Line | relative viability |
| --- | --- |
| 201T | 1.11 |
| NCI-H1915 | 1.02 |
| HCC-827 | 1.07 |
| LXF-289 | 0.991 |
| NCI-H23 | 1.14 |
| NCI-H647 | 0.799 |
| CAL-12T | 0.926 |
| NCI-H1651 | 0.898 |
| EPLC-272H | 0.939 |
| NCI-H2228 | 1.13 |
| NCI-H1355 | 1.21 |
| NCI-H3122 | 0.982 |
| NCI-H1437 | 0.543 |
| NCI-H1755 | 0.9 |
| NCI-H2023 | 0.943 |
| HCC-15 | 1.01 |

Same assay, conditions: first compound 0.03162 µM

| Cell Line | relative viability |
| --- | --- |
| NCI-H2405 | 1.04 |
| HOP-62 | 1.34 |
| LU99A | 1.12 |
| BEN | 0.896 |
| HARA | 1.27 |
| HCC-78 | 0.559 |
| NCI-H322M | 1.22 |
| LCLC-97TM1 | 0.408 |
| NCI-H2009 | 0.916 |
| A-427 | 1.04 |
| NCI-H441 | 0.719 |
| NCI-H661 | 0.868 |
| NCI-H1734 | 0.82 |
| NCI-H460 | 0.65 |
| NCI-H2347 | 0.963 |
| SK-LU-1 | 1.12 |

| Cell Line | relative viability |
| --- | --- |
| 201T | 1.12 |
| NCI-H1915 | 0.965 |
| HCC-827 | 0.971 |
| LXF-289 | 0.91 |
| NCI-H23 | 0.885 |
| NCI-H647 | 0.888 |
| CAL-12T | 0.823 |
| NCI-H1651 | 0.98 |
| EPLC-272H | 0.891 |
| NCI-H2228 | 0.911 |
| NCI-H1355 | 1.21 |
| NCI-H3122 | 1.01 |
| NCI-H1437 | 0.463 |
| NCI-H1755 | 0.891 |
| NCI-H2023 | 0.87 |
| HCC-15 | 0.96 |

Same assay, conditions: first compound 0.1 µM

| Cell Line | relative viability |
| --- | --- |
| NCI-H2405 | 0.588 |
| HOP-62 | 0.329 |
| LU99A | 0.244 |
| BEN | 0.43 |
| HARA | 0.751 |
| HCC-78 | 0.487 |
| NCI-H322M | 1.34 |
| LCLC-97TM1 | 0.0735 |
| NCI-H2009 | 0.413 |
| A-427 | 0.763 |
| NCI-H441 | 0.209 |
| NCI-H661 | 0.727 |
| NCI-H1734 | 0.226 |
| NCI-H460 | 0.265 |
| NCI-H2347 | 0.859 |
| SK-LU-1 | 0.465 |

| Cell Line | relative viability |
| --- | --- |
| 201T | 1.07 |
| NCI-H1915 | 0.613 |
| HCC-827 | 0.974 |
| LXF-289 | 0.485 |
| NCI-H23 | 0.182 |
| NCI-H647 | 0.457 |
| CAL-12T | 0.393 |
| NCI-H1651 | 0.894 |
| NCI-H2228 | 0.16 |
| NCI-H1355 | 0.874 |
| NCI-H3122 | 0.43 |
| NCI-H1437 | 0.416 |
| NCI-H1755 | 0.355 |
| NCI-H2023 | 0.193 |
| HCC-15 | 0.902 |

Same assay, conditions: first compound 0.3162 µM

| Cell Line | relative viability |
| --- | --- |
| NCI-H2405 | 0.632 |
| HOP-62 | 0.114 |
| LU99A | 0.19 |
| BEN | 0.223 |
| HARA | 0.0898 |
| HCC-78 | 0.352 |
| NCI-H322M | 1.34 |
| LCLC-97TM1 | 0.0639 |
| NCI-H2009 | 0.156 |
| A-427 | 0.123 |
| NCI-H441 | 0.152 |
| NCI-H661 | 0.191 |
| NCI-H1734 | 0.154 |
| NCI-H460 | 0.0115 |
| NCI-H2347 | 0.482 |
| SK-LU-1 | 0.201 |

| Cell Line | relative viability |
| --- | --- |
| 201T | 1.09 |
| NCI-H1915 | 0.439 |
| HCC-827 | 0.638 |
| LXF-289 | 0.0621 |
| NCI-H23 | 0.117 |
| NCI-H647 | 0.0877 |
| CAL-12T | 0.182 |
| NCI-H1651 | 0.583 |
| EPLC-272H | 0.786 |
| NCI-H2228 | 0.198 |
| NCI-H1355 | 0.303 |
| NCI-H3122 | 0.231 |
| NCI-H1437 | 0.136 |
| NCI-H1755 | 0.308 |
| NCI-H2023 | 0.0834 |
| HCC-15 | 0.542 |

Same assay, conditions: first compound 1 µM

| Cell Line | relative viability |
| --- | --- |
| NCI-H2405 | 0.723 |
| HOP-62 | 0.103 |
| LU99A | 0.193 |
| BEN | 0.287 |
| HARA | 0.0779 |
| HCC-78 | 0.219 |
| NCI-H322M | 0.311 |
| LCLC-97TM1 | 0.0648 |
| NCI-H2009 | 0.108 |
| A-427 | 0.1 |
| NCI-H441 | 0.177 |
| NCI-H661 | 0.257 |
| NCI-H1734 | 0.156 |
| NCI-H460 | 0.0118 |
| NCI-H2347 | 0.476 |
| SK-LU-1 | 0.174 |
| 201T | 0.367 |
| NCI-H1915 | 0.0752 |
| HCC-827 | 0.377 |
| LXF-289 | 0.0527 |
| NCI-H23 | 0.139 |
| NCI-H647 | 0.087 |
| CAL-12T | 0.192 |
| NCI-H1651 | 0.11 |
| EPLC-272H | 0.101 |
| NCI-H2228 | 0.187 |
| NCI-H1355 | 0.184 |
| NCI-H3122 | 0.242 |
| NCI-H1437 | 0.089 |
| NCI-H1755 | 0.262 |
